# Results as given in patent publication EP0093484A2, “Antibacterial monic acid derivatives” (BEECHAM GROUP PLC, priority 1982, dated 1983).
# Tests used:
# Strep. dysgalactiae SPD1 = assay: Veterinary bacteria, MIC by two fold serial dilution in agar; details: Streptococcus dysgalactiae, SPD1, 18 h
# Description: (§1) The activity of the compounds of the Examples against various organisms important in veterinary infections was determined using two fold serial dilutions in Diagnostic Sensitivity Test Agar inoculated with 10^4 organisms.
# M. suipneumoniae UCD 1 = assay: Anti-mycoplasmal activity, MIC in Friis broth agarose; type: cell-based; details: Mesomycoplasma hyopneumoniae, UCD1, 144 h, Friis broth solidified with 0.9% agarose, 6 days incubation at 37°C, read-out: MIC
# K. aerogenes A = assay: Human bacteria, MIC by serial dilution in nutrient agar; type: cell-based; details: Klebsiella aerogenes, nutrient agar with 5% chocolated horse blood, 18 hours at 37°C, read-out: MIC
# M. suipneumoniae LABER = assay: Anti-mycoplasmal activity, MIC in Friis broth agarose; type: cell-based; details: Mesomycoplasma hyopneumoniae, 144 h, Friis broth solidified with 0.9% agarose, 6 days incubation at 37°C, read-out: MIC
# Ps. aeruginosa 10662 = assay: Human bacteria, MIC by serial dilution in nutrient agar; type: cell-based; details: Pseudomonas aeruginosa, nutrient agar with 5% chocolated horse blood, 18 hours at 37°C, read-out: MIC
# E. coli NCTC 10418 [1] = assay: as above; type: cell-based; details: Escherichia coli, NCTC10418; E. coli NCTC 10418 (human panel); nutrient agar with 5% chocolated horse blood; 18 hours at 37°C; read-out: MIC
# [2] = test system: M. suipneumoniae ATCC 25095; assay: Anti-mycoplasmal activity, MIC in Friis broth agarose; type: cell-based; details: Mesomycoplasma hyopneumoniae, ATCC25095, 144 h, Friis broth solidified with 0.9% agarose, 6 days incubation at 37°C, read-out: MIC
# [3] = test system: Corynebacterium pyogenes CY1; assay: Veterinary bacteria, MIC by two fold serial dilution in agar; details: CY1, 18 h
# Description: as §1
# M. suipneumoniae HK(2) = assay: Anti-mycoplasmal activity, MIC in Friis broth agarose; type: cell-based; details: Mesomycoplasma hyopneumoniae, 144 h, Friis broth solidified with 0.9% agarose, 6 days incubation at 37°C, read-out: MIC
# M. bovis NCTC 10131 = assay: microbe, parasite or virus in culture; type: cell-based; details: NCTC10131, 144 h
# [4] = test system: Staph. aureus B4 (pen. resistant); assay: Veterinary bacteria, MIC by two fold serial dilution in agar; details: Staphylococcus aureus, 18 h
# Description: as §1
# [5] = test system: Corynebacterium xerosis 9755; assay: Human bacteria, MIC by serial dilution in nutrient agar; type: cell-based; details: nutrient agar with 5% chocolated horse blood, 18 hours at 37°C, read-out: MIC
# M. pneumoniae ATCC 15492 = assay: Anti-mycoplasmal activity, MIC in Friis broth agarose; type: cell-based; details: Mycoplasmoides pneumoniae, ATCC15492, 144 h, Friis broth solidified with 0.9% agarose, 6 days incubation at 37°C, read-out: MIC
# Staph. aureus Russell = assay: Human bacteria, MIC by serial dilution in nutrient agar; type: cell-based; details: Staphylococcus aureus, nutrient agar with 5% chocolated horse blood, 18 hours at 37°C, read-out: MIC
# E. coli NCTC 10418 [6] = assay: Veterinary bacteria, MIC by two fold serial dilution in agar; details: Escherichia coli, NCTC10418, 18 h
# Description: as §1
# Past. multocida PA2 = assay: as above; details: Pasteurella multocida, PA2, 18 h
# Description: as §1
# [7] = test system: M. suipneumoniae PW/C/210; assay: Anti-mycoplasmal activity, MIC in Friis broth agarose; type: cell-based; details: Mesomycoplasma hyopneumoniae, 144 h, Friis broth solidified with 0.9% agarose, 6 days incubation at 37°C, read-out: MIC
# M. suipneumoniae JF 435 = assay: as above; type: cell-based; details: Mesomycoplasma hyopneumoniae, JF435, 144 h, Friis broth solidified with 0.9% agarose, 6 days incubation at 37°C, read-out: MIC
# Staph. aureus W2827 = assay: Human bacteria, MIC by serial dilution in nutrient agar; type: cell-based; details: Staphylococcus aureus, nutrient agar with 5% chocolated horse blood, 18 hours at 37°C, read-out: MIC
# M. suipneumoniae NB12 = assay: Anti-mycoplasmal activity, MIC in Friis broth agarose; type: cell-based; details: Mesomycoplasma hyopneumoniae, 144 h, Friis broth solidified with 0.9% agarose, 6 days incubation at 37°C, read-out: MIC
# M. suipneumoniae TAM 6N = assay: as above; type: cell-based; details: Mesomycoplasma hyopneumoniae, TAM6N, 144 h, Friis broth solidified with 0.9% agarose, 6 days incubation at 37°C, read-out: MIC
# M. hyorhinis ATCC 23234 = assay: as above; type: cell-based; details: Mesomycoplasma hyorhinis, ATCC23234, 144 h, Friis broth solidified with 0.9% agarose, 6 days incubation at 37°C, read-out: MIC
# [8] = test system: Haemophilus influenzae Wy21; assay: Human bacteria, MIC by serial dilution in nutrient agar; type: cell-based; details: nutrient agar with 5% chocolated horse blood, 18 hours at 37°C, read-out: MIC
# Sarcina lutea 8340 = assay: as above; type: cell-based; details: Micrococcus luteus, nutrient agar with 5% chocolated horse blood, 18 hours at 37°C, read-out: MIC
# Strep. pneumoniae CN33 = assay: as above; type: cell-based; details: Streptococcus pneumoniae, nutrient agar with 5% chocolated horse blood, 18 hours at 37°C, read-out: MIC
# [9] = test system: Neisseria catarrhalis 1502; assay: as above; type: cell-based; details: nutrient agar with 5% chocolated horse blood, 18 hours at 37°C, read-out: MIC
# [10] = test system: Pasteurella multocida 1633; assay: as above; type: cell-based; details: nutrient agar with 5% chocolated horse blood, 18 hours at 37°C, read-out: MIC
# E. coli ESS = assay: as above; type: cell-based; details: Escherichia coli, nutrient agar with 5% chocolated horse blood, 18 hours at 37°C, read-out: MIC
# [11] = test system: Staph. aureus 152 (pen. sens.); assay: Veterinary bacteria, MIC by two fold serial dilution in agar; details: Staphylococcus aureus, 18 h
# Description: as §1
# Past. multocida PA1 = assay: as above; details: Pasteurella multocida, PA1, 18 h
# Description: as §1
# Strep. faecalis I = assay: Human bacteria, MIC by serial dilution in nutrient agar; type: cell-based; details: Enterococcus faecalis, nutrient agar with 5% chocolated horse blood, 18 hours at 37°C, read-out: MIC
# E. coli E1 = assay: Veterinary bacteria, MIC by two fold serial dilution in agar; details: Escherichia coli, E1, 18 h
# Description: as §1
# S. typhimurium S18 = assay: as above; details: Salmonella enterica, TYPHIMURIUM, 18 h
# Description: as §1
# [12] = test system: Haemophilus influenzae Q1; assay: Human bacteria, MIC by serial dilution in nutrient agar; type: cell-based; details: nutrient agar with 5% chocolated horse blood, 18 hours at 37°C, read-out: MIC
# [13] = test system: M. bovigenitalium ATCC 14173; assay: Anti-mycoplasmal activity, MIC in Friis broth agarose; type: cell-based; details: 144 h, Friis broth solidified with 0.9% agarose, 6 days incubation at 37°C, read-out: MIC
# M. dispar NCTC 10125 = assay: as above; type: cell-based; details: 144 h, Friis broth solidified with 0.9% agarose, 6 days incubation at 37°C, read-out: MIC
# M. suipneumoniae MS16 = assay: as above; type: cell-based; details: Mesomycoplasma hyopneumoniae, 144 h, Friis broth solidified with 0.9% agarose, 6 days incubation at 37°C, read-out: MIC
# P. mirabilis 889 = assay: Human bacteria, MIC by serial dilution in nutrient agar; type: cell-based; details: Proteus mirabilis, nutrient agar with 5% chocolated horse blood, 18 hours at 37°C, read-out: MIC
# Bord. bronchiseptica BO9 = assay: Veterinary bacteria, MIC by two fold serial dilution in agar; details: Bordetella bronchiseptica, BO9, 18 h
# Description: as §1
# Bord. bronchiseptica B08 = assay: as above; details: Bordetella bronchiseptica, B08, 18 h
# Description: as §1
structure (smiles),measurement,setting,value
"CC(=CC(=O)OCc1cccc([S+](C)[O-])c1)CC1OCC(CC2OC2C(C)C(C)O)C(O)C1O (centres unmarked) [Example 6, m-Methylsulfinylbenzyl monate A]",MIC,Strep. dysgalactiae SPD1,20 µg/mL
same,MIC,M. suipneumoniae UCD 1,10 µg/mL
same,MIC,K. aerogenes A,> 100 µg/mL
same,MIC,M. suipneumoniae LABER,5 µg/mL
same,MIC,Ps. aeruginosa 10662,> 100 µg/mL
same,MIC,E. coli NCTC 10418 [1],> 100 µg/mL
same,MIC,[2],5 µg/mL
same,MIC,[3],> 80 µg/mL
same,MIC,M. suipneumoniae HK(2),10 µg/mL
same,MIC,M. bovis NCTC 10131,0.25 µg/mL
same,MIC,[4],5 µg/mL
same,MIC,[5],> 100 µg/mL
same,MIC,M. pneumoniae ATCC 15492,5 µg/mL
same,MIC,Staph. aureus Russell,12.5 µg/mL
same,MIC,E. coli NCTC 10418 [6],> 80 µg/mL
same,MIC,Past. multocida PA2,20 µg/mL
same,MIC,[7],5 µg/mL
same,MIC,M. suipneumoniae JF 435,10 µg/mL
same,MIC,Staph. aureus W2827,12.5 µg/mL
same,MIC,M. suipneumoniae NB12,5 µg/mL
same,MIC,M. suipneumoniae TAM 6N,10 µg/mL
same,MIC,M. hyorhinis ATCC 23234,5 µg/mL
same,MIC,[8],2.5 µg/mL
same,MIC,Sarcina lutea 8340,> 100 µg/mL
same,MIC,Strep. pneumoniae CN33,25 µg/mL
same,MIC,[9],12.5 µg/mL
same,MIC,[10],25 µg/mL
same,MIC,E. coli ESS,25 µg/mL
same,MIC,[11],5 µg/mL
same,MIC,Past. multocida PA1,80 µg/mL
same,MIC,Strep. faecalis I,> 100 µg/mL
same,MIC,E. coli E1,> 80 µg/mL
same,MIC,S. typhimurium S18,> 80 µg/mL
same,MIC,[12],2.5 µg/mL
same,MIC,[13],0.25 µg/mL
same,MIC,M. dispar NCTC 10125,2.5 µg/mL
same,MIC,M. suipneumoniae MS16,5 µg/mL
same,MIC,P. mirabilis 889,> 100 µg/mL
same,MIC,Bord. bronchiseptica BO9,> 80 µg/mL
same,MIC,Bord. bronchiseptica B08,> 80 µg/mL
"CC(=CC(=O)OCc1cccc(S(C)(=O)=O)c1)CC1OCC(CC2OC2C(C)C(C)O)C(O)C1O (centres unmarked) [Example 7, m-Methylsulfonylbenzyl monate A]",MIC,Strep. dysgalactiae SPD1,1.25 µg/mL
same,MIC,M. suipneumoniae UCD 1,1 µg/mL
same,MIC,K. aerogenes A,> 100 µg/mL
same,MIC,M. suipneumoniae LABER,0.5 µg/mL
same,MIC,Ps. aeruginosa 10662,> 100 µg/mL
same,MIC,E. coli NCTC 10418 [1],> 100 µg/mL
same,MIC,[2],0.5 µg/mL
same,MIC,[3],> 80 µg/mL
same,MIC,M. suipneumoniae HK(2),1 µg/mL
same,MIC,M. bovis NCTC 10131,0.025 µg/mL
same,MIC,[4],2.5 µg/mL
same,MIC,[5],> 100 µg/mL
same,MIC,M. pneumoniae ATCC 15492,2.5 µg/mL
same,MIC,Staph. aureus Russell,5 µg/mL
same,MIC,E. coli NCTC 10418 [6],> 80 µg/mL
same,MIC,Past. multocida PA2,1.25 µg/mL
same,MIC,[7],0.5 µg/mL
same,MIC,M. suipneumoniae JF 435,1 µg/mL
same,MIC,Staph. aureus W2827,5 µg/mL
same,MIC,M. suipneumoniae NB12,0.5 µg/mL
same,MIC,M. suipneumoniae TAM 6N,1 µg/mL
same,MIC,M. hyorhinis ATCC 23234,0.5 µg/mL
same,MIC,[8],0.5 µg/mL
same,MIC,Sarcina lutea 8340,> 100 µg/mL
same,MIC,Strep. pneumoniae CN33,1 µg/mL
same,MIC,[9],1 µg/mL
same,MIC,[10],2.5 µg/mL
same,MIC,E. coli ESS,2.5 µg/mL
same,MIC,[11],2.5 µg/mL
same,MIC,Past. multocida PA1,2.5 µg/mL
same,MIC,Strep. faecalis I,> 100 µg/mL
same,MIC,E. coli E1,> 80 µg/mL
same,MIC,S. typhimurium S18,> 80 µg/mL
same,MIC,[12],0.5 µg/mL
same,MIC,[13],0.05 µg/mL
same,MIC,M. dispar NCTC 10125,0.25 µg/mL
same,MIC,M. suipneumoniae MS16,0.5 µg/mL
same,MIC,P. mirabilis 889,> 100 µg/mL
same,MIC,Bord. bronchiseptica BO9,20 µg/mL
same,MIC,Bord. bronchiseptica B08,> 80 µg/mL
